This note sets out measurements from US12128035B2, “Activating pyruvate kinase R” (Novo Nordisk Health Care AG, priority 2021, dated 2024).

One experiment concerns Human SCD cells. In words: Ex vivo sickling under hypoxic conditions. Format: cell-based. Particulars: for Net % of Sickled Cells / % Protection: 10 μM. The procedure: Red blood cells from SCD patients were used to evaluate the effects of Compound 1 on Hgb affinity for oxygen (i.e., oxygen affinity) and sickling under hypoxic conditions. Cells were incubated at 37° C. for 1, 2, and 3 hr with HEPES buffered saline (HBS) (untreated), HBS+dimethyl sulfoxide (DMSO) (vehicle), or 10 μM Compound 1. To assess oxygen dissociation, Hgb oxygen equilibrium curves were collected during deoxygenation.
Compound 1 (10 μM) reduced cell sickling under severe hypoxic conditions of 2% oxygen (PO2 of <20 mmHg) for up to 20 min (Table 8).

The subject of experiment [1] is p50 (PO2 at 50% hemoglobin saturation). Nature of the experiment: Phase 1: p50 (oxygen affinity) in SCD patients. Format: in vivo, human. The protocol: In SCD patients, the mean absolute change in p50, relative to baseline, measured 24 hours after a single 700 mg dose of Compound 1, was −4 mmHg.
With respect to the bar graphs representing the “Untreated” and “Treated” subjects in the SCD MAD cohort, the bar on the left side represents the P50 measured Pre-Dose, and the bar on the right side represents the P50 measured after 14 days of Compound 1, 300 mg once daily. SCD RBCs have higher P50 at baseline compared to HV RBCs. In the MAD cohort in SCD patients (300 mg QD for 14 days), the mean absolute change in p50, relative to baseline, measured 24 hours after the final dose of Compound 1, was −4 mmHg.
The oxygen affinity of RBCs was measured in patient blood using a Hemox Analyzer (TCS Scientific Corp.), an automatic system for the recording of blood oxygen equilibrium curves and related phenomena. The Hemox Analyzer was used according to standard methods to determine the hemoglobin-oxygen dissociation curves for whole blood samples, numerically characterized by the p50, the partial pressure of oxygen at which hemoglobin is 50% saturated. […] In the case of hemoglobin, the wavelength of maximum absorbance is the measuring wavelength (560 nm), while the reference wavelength is at the isosbestic point at (570 nm). The absorbance at the isosbestic point remains unchanged during the deoxygenation process of the hemoglobin, however the measuring wavelength (560 nm) undergoes a drastic change in absorbance. This change is detected by the electronic circuitry and is plotted as the log/ratio change between the two wavelengths. The log/ratio measurement at 560 nm and 570 nm is utilized to measure the optical absorbance change during the deoxygenation of the hemoglobin. Simultaneously with the measurement of the hemoglobin absorbance, the oxygen concentration is directly measured in the sample using a Clark electrode. […]

Consider `O=C([C@H](CO)c1ccccc1)N1CC2=C(C1)CN(S(=O)(=O)c1cnc3c(c1)OCCO3)C2` (single isomer, unassigned) [Compound 1], for which the “Net % of Sickled Cells” value in the experiment with Human SCD cells (0 min in hypoxic conditions (DMSO 7)) amounted to 10%; with Human SCD cells (2 min in hypoxic conditions (DMSO 41)) it was 47%; with Human SCD cells (5 min in hypoxic conditions (DMSO 57)), 49%; in the experiment on Human SCD cells (10 min in hypoxic conditions (DMSO 61)), 54%; in the experiment on Human SCD cells (15 min in hypoxic conditions (DMSO 68)), 57%; in the experiment on Human SCD cells (20 min in hypoxic conditions (DMSO 71)) it was 60%. For the same compound, the “% Protection” value in the experiment with Human SCD cells (2 min in hypoxic conditions) is −15%; in the experiment on Human SCD cells (5 min in hypoxic conditions) it was 14%; in the experiment on Human SCD cells (10 min in hypoxic conditions) it was 11%; in the experiment on Human SCD cells (15 min in hypoxic conditions) it was 16%; in the experiment on Human SCD cells (20 min in hypoxic conditions (last time point)), 15%. Besides, in the experiment on Human SCD cells (severe hypoxic conditions of 2% oxygen), the “percent protection (maximum)” value is recorded as “up to 16%”. Further, the “mean absolute change in p50, relative to baseline” value is on record as −4 mmHg in experiment [1] (SCD 300 mg QD for 14 days, 24 hours after the final dose) and −4 mmHg in experiment [1] (SCD, 24 hours after single 700 mg dose). Further, the “p50 (Oxygen affinity curve)” value in experiment [1] (SCD single 700 mg, Post-dose (24 hours), median (range), pre-dose 29.4 (26.1, 32.3)) is on record as 25.8 (23.3, 26.8).
